In patent publication US10188677B2, “Iron supplement composition” (THE D DROPS COMPANY INC., priority 2011, dated 2019):
Marks after values point to notes of the source that are not given here.

How the values were obtained:
Assay type in all cases: physicochemical
[1] = Settling: time for iron salt particulate to show evidence of settling in carrier liquid
Protocol: Settling behavior was also tested for each carrier liquid. Test tubes of carrier liquid were loaded with either ferrous sulfate (dried) or ferrous fumarate at concentrations of 66 mg/mL of elemental iron. […] Settling was then allowed to proceed and the time required for the iron salt particulate to show evidence of settling was recorded. Evidence of settling was considered as a reduction in opacity throughout the top 1 cm of liquid in the test tube.

[2] = Dispersion: number of test tube inversions to achieve even dispersion of iron salt in carrier liquid; details: for Dispersion (# of inversions): 66 mg/mL elemental iron
Protocol: (§1) Iron salt in the form of ferrous sulfate (dried) and ferrous fumarate were investigated for dispersibility and settling behavior in a range of carrier liquids. Sufficient iron salt was added to test tubes to achieve concentrations of elemental iron equivalent to 66 mg/mL suspension (i.e., 2 mg/drop, a commercially-viable concentration for infant supplementation).
The initial preparation of dry powder iron salts into suspension was achieved by weighing the desired amount of dry powder, which was added to the liquid in a capped test tube. The combination was shaken for about two minutes, and it was then allowed to settle overnight to promote thorough particle whetting.
Suitability of the preparation for suspension was next tested by counting the number inversions of the test tube inversions required to achieve an even dispersion of particles in the carrier liquid. Each replicate began with iron salt fully settled at the bottom of the test tube.

[3] = Drop consistency for Eurodropper dispensing
Protocol: Drop consistency was examined to determine suitability of various dispersions for Eurodropper dispensing. Preparations of various iron salts, at concentrations of 66 mg/mL, were made using medium chain triglyceride oil. Each sample was shaken vigorously and then inverted to dispense 10 drops. This was repeated until 60 drops were dispensed.
The effect of carrier liquid type on drop consistency was next examined. Preparations of ferrous fumarate (149 μm particle size) were prepared and drop consistency was measured using similar methodology to that described above.

[4] = Viscosity and density of carrier liquids
Protocol: as §1

[5] = carrier: medium chain triglyceride, 66 mg/mL elemental iron
[6] = carrier: olive oil, 66 mg/mL elemental iron
[7] = carrier: rapeseed oil, 66 mg/mL elemental iron
[8] = carrier: medium chain triglyceride
[9] = iron salt 66 mg/mL in medium chain triglyceride oil

Structure (SMILES) | Settling [1, 5] [s] | Settling [1, 6] [s] | Settling [1, 7] [s] | Dispersion (# of inversions) [2, 8] | Dispersion (# of inversions) ([2]; carrier: olive oil) | Dispersion (# of inversions) ([2]; carrier: rapeseed oil) | Dispersibility ([2]; water-based preparations) | Dispensing of dispersion from the Eurodropper [3, 9] | also measured
O=C([O-])/C=C/C(=O)[O-].[Fe+2] [Ferrous fumarate, ferrous fumarate] | 16.3 ± 1.2 | 95.5 ± 4.9 | 144.0 ± 5.7 | 56.4 ± 10.6 # of inversions | 84.0 ± 1.4 # of inversions | 167.0 ± 7.0 # of inversions | very easily | – | Settling ([1]; carrier: water, 66 mg/mL elemental iron): 1.0 ± 0.5 s; Settling ([1]; in water): extremely rapid settling; Dispersibility ([2]; carrier: medium chain triglyceride oil, relative to the other carriers): acceptably rapid; Dispersion (# of inversions) ([2]; carrier: water): 4.3 ± 0.6 # of inversions; Average 10 Drop Weight (mg ± SD) ([3]; ferrous fumarate 149 μm particle size, carrier: canola oil): 284.8 ± 4.7 mg; Average 10 Drop Weight (mg ± SD) ([3]; ferrous fumarate 149 μm particle size, carrier: medium chain triglyceride): 276.2 ± 3.0 mg; Average 10 Drop Weight (mg ± SD) ([3]; ferrous fumarate 149 μm particle size, carrier: olive oil): 285.8 ± 3.5 mg; Average 10 Drop Weight (mg ± SD) ([3]; ferrous fumarate 149 μm particle size, carrier: water): Occluded *; Average 10 Drop Weight (mg ± SD) ([3]; iron salt 66 mg/mL in medium chain triglyceride oil, Eurodropper, 60 drops, listed as Ferrous fumarate (Sigma, XXX μm)): 264.7 ± 10.2 mg; Average 10 Drop Weight (mg ± SD) ([3]; iron salt 66 mg/mL in medium chain triglyceride oil, Eurodropper, 60 drops, listed as Ferrous fumarate (Watson, 149 μm)): 277.0 ± 10.3 mg; Performance in the Eurodropper ([3]; regardless of carrier liquid): consistent performance
O=S(=O)([O-])[O-].[Fe+2] [Ferrous sulfate (dried), ferrous sulfate (dried)] | 42.3 ± 8.5 | 213.3 ± 7.6 | 238.7 ± 5.9 | 7.3 ± 0.6 # of inversions | 27.3 ± 4.5 # of inversions | 62.0 ± 6.0 # of inversions | not at all | ** Dispersion failed to dispense at all from the Eurodropper because the powder clumped in the oil, and occluded opening. | –
O=P([O-])([O-])OP(=O)([O-])[O-].[Fe+2].[Fe+2] [Ferrous pyrophosphate] | – | – | – | – | – | – | – | * Dispersion failed to dispense from the Eurodropper after 15 drops. | Average 10 Drop Weight (mg ± SD) ([3]; iron salt 66 mg/mL in medium chain triglyceride oil, Eurodropper, 60 drops): 266 * mg
O [Water] | – | – | – | – | – | – | – | – | Density [4]: 1 g/mL; Viscosity ([4]; @ 20° C.): 1 cP
